Assay results from patent US4138482A, “3-Cyano-N-(N,N-dimethylaminopropyl)-iminodibenzyl and salts thereof” (Hoffmann-La Roche Inc., priority 1976, dated 1979).
Counter-ions that a name gives are not always drawn.

How the values were obtained:
[1] = Anticholinergic side-effects; details: for example mouth dryness, constipation, tachycardia and/or accommodation disorders
[2] = Solubility; format: physicochemical; details: free base
[3] = test system: neuronal serotonin uptake; assay: Antidepressive activity / inhibition of the neuronal serotonin uptake in animal experiments; format: in vivo
Description: The compound of formula I and its pharmaceutically acceptable acid addition salts, are therefore useful, for example, for the treatment of depressions of endogenous or exogenous origin. More specifically, they are useful as antidepressants.

[4] = test system: serotonin uptake in blood platelets of the rat; assay: Inhibition of the serotonin uptake in vivo (blood platelets); details: ip; for inhibition at 5 mg/kg: Rattus norvegicus, Platelet, 5.0 mg/kg intraperitoneally twice daily over 4 days, 12 hours after last administration, read-out: Inhibition in % of the control; for Serotonin in mmol/mg. of protein: 5 mg/kg
Procedure: 5. Inhibition of the serotonin uptake in vivo
Rats were given twice daily over a period of 4 days an intraperitoneal injection of 5.0 mg. of test substance per kg. and 12 hours after the last administration the rats were killed. Serotonin was determined spectrofluorimetrically as described in J. Pharmacol. exp.

[5] = test system: serotonin uptake in the synaptosomes of the forebrain of rats; assay: Inhibition of the serotonin uptake in vitro (synaptosomes of the forebrain of rats); format: biochemical, rat; details: for IC50: synaptosomes of the forebrain of rats, read-out: ED50 (inhibition of 50%) of serotonin uptake in vitro
Procedure: 1. Inhibition of the serotonin uptake in vitro
(§1) The uptake of serotonin in the synaptosomes of the forebrain of rats was tested according to J. Pharmacol. exp.

[6] = test system: serotonin uptake in blood platelets of the rat; assay: Inhibition of the serotonin uptake in vitro (blood platelets); format: cell-based
Procedure: 4. Inhibition of the serotonin uptake in vitro
0.5 Ml. of blood plasma was treated with different concentrations of test substance in 50 μl of physiological sodium chloride solution. After incubating at 37° C. for 5 minutes, serotonin (C^14; 0.1 μM) was added and the mixture was incubated at 37° C. for an additional 5 minutes. The serotonin concentration was determined by means of a C^14 measuring apparatus. A control experiment in which no test substance is used was also carried out.

[7] = test system: serotonin uptake in the synaptosomes of the forebrain of rats; assay: Inhibition of the serotonin uptake ex vivo; format: in vivo, rat; details: for ED50: Rattus norvegicus, ip, injected intraperitoneally, serotonin uptake measured after 1 hour, rats
Procedure: as §1
2. Inhibition of the serotonin uptake ex vivo
An analogous experimental procedure to that given under 1 was utilized. The test substances were, however, injected intraperitoneally; the serotonin uptake was measured after 1 hour. Untreated rats were used as the controls.

[8] = test system: serotonin re-uptake ("membrane pump"); assay: Inhibition of the serotonin re-uptake in vivo (action of the "membrane pump"); set-up: species or system rat; details: for ED50: Rattus norvegicus, "membrane pump", Biochem. Pharmacol. 20, 707, 1971

CN(C)CCCN1c2ccccc2CCc2ccc(C#N)cc21 [3-cyano-N-(N,N-dimethylaminopropyl)-iminodibenzyl]
anticholinergic side-effects [1]: confined to a minimum
solubility in organic solvents ([2]; dimethylsulfoxide, dimethylformamide, chlorinated hydrocarbons (chloroform, methylene chloride), alkanols (methanol, ethanol), ether and benzene): relatively good solubility
solubility in water ([2]; water): soluble in water with relative difficulty
antidepressive activity [3]: strong antidepressive activity
inhibition of the neuronal serotonin uptake [3]: extraordinarily strong inhibition of the neuronal serotonin uptake

CN(C)CCCN1c2ccccc2CCc2ccc(C#N)cc21 [Substance A, 3-Cyano-N-(N,N-dimethylaminopropyl)-iminodibenzyl hydrochloride]
inhibition at 5 mg/kg [4]: 61%
Serotonin in mmol/mg. of protein [4]: 4.09 ± 1.30 mmol/mg. of protein
IC50 [5]: 1.5 nM
times greater activity than substance B ([5]; versus known substance B, synaptosomes): 52 times
times greater activity than substance C ([5]; versus known substance C, synaptosomes): 4.2 times
times greater activity than substance B ([6]; versus known substance B): 130 times
times greater activity than substance C ([6]; versus known substance C): 20 times
ED50 [7]: 0.9 mg/kg
as active as substance B in times smaller doses ([7]; versus known substance B, ex vivo): 21 times
as active as substance C in times smaller doses ([7]; versus known substance C, ex vivo): 2.4 times
ED50 [8]: 0.7 mg/kg
as active as substance B in times smaller doses ([8]; versus known substance B, in vivo re-uptake): 18 times
as active as substance C in times smaller doses ([8]; versus known substance C, in vivo re-uptake): 9 times

CN(C)CCCN1c2ccccc2CCc2ccccc21 [Substance B, N-(N,N-Dimethylaminopropyl)-iminodibenzyl hydrochloride, reference compound]
inhibition at 5 mg/kg [4]: 14%
Serotonin in mmol/mg. of protein [4]: 9.72 ± 2.12 mmol/mg. of protein
IC50 [5]: 78 nM
ED50 [7]: 19 mg/kg
ED50 [8]: 12.8 mg/kg
